Source: publication PMC5382172 (Frontiers in Molecular Neuroscience, 2017)

What was measured:
[1] = target: T1, GluClβWT (GLC-2) homomeric receptor (Caenorhabditis elegans, UniProt Q17328); test: Whole-cell patch clamp in CHO cells transfected with GluClβWT subunit alone; type: cell-based; details: βWT alone, 500 nM IVM, -60 mV
T1 construct: entry codes of the full-length subunits used in this study; expressed in transfected cells; host or cells: CHO cells, transient transfection, pcDNA3.1
T1 sequence (Q17328 23-434): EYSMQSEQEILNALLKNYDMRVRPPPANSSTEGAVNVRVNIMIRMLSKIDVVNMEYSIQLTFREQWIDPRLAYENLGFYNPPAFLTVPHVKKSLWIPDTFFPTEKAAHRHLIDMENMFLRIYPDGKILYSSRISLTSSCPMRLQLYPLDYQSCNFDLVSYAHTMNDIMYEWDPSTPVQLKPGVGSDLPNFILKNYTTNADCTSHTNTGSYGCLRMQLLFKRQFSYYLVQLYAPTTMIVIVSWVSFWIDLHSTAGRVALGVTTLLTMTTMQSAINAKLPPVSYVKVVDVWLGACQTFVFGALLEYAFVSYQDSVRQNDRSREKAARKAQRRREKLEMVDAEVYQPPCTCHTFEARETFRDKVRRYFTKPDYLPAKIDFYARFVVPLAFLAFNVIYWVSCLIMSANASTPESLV
Experimental: (§1) Chinese hamster ovary (CHO) cells were cultured as previously (Bar-Lev et al., [2011]) in Dulbecco’s Modified Eagle Medium (DMEM) containing 10% fetal calf serum, 2 mM glutamax, 100 Units/ml penicillin G and 100 μg/ml streptomycin, and grown in 5% CO2 at 37°C under 90%–95% humidity. The cells were seeded on glass coverslips (13-mm diameter) placed in a 24-multiwell plate. […] For the expression of GluCl receptors, cells were transiently co-transfected with pcDNA3.1 plasmids containing the ORFs of interest using transit-LT1 transfection reagent (Mirus, Madison, WI, USA), according to the manufacturer’s protocol. The cDNAs encoding the C. elegans GluClα (GLC-1) or its mutated versions and the GluClβ (GLC-2) subunits (200–600 ng per well) were used at 1:1 ratio. The pIRES-CD8 plasmid (200 ng per well) was added to enable the visualization of the expressing cells by beads coated with anti-CD8 antibodies (Invitrogen). […]
(§2) Whole-cell patch clamp recordings were performed as described previously (Bar-Lev et al., [2011]) in CHO cells that were prepared as detailed above. […] The currents were measured with an Axopatch 200B patch-clamp amplifier (Molecular Devices, Sunnyvale, CA, USA) and a Digidata 1440A interface (Molecular Devices). […]

GluClαP192M/βWT receptor = target: T2, GluClαP192M/βWT receptor (Caenorhabditis elegans, UniProt G5EBR3+Q17328, P192M); test: Whole-cell patch clamp in CHO cells, GluClαP192M/βWT receptor; type: cell-based; details: 500 nM IVM, -60 mV
T2 construct: entry codes of the full-length subunits used in this study; expressed in transfected cells; host or cells: CHO cells, transient co-transfection 1:1, pcDNA3.1
Experimental: as §1, §2

GluClαP192Y/βWT receptor = target: T3, GluClαP192Y/βWT receptor (Caenorhabditis elegans, UniProt G5EBR3+Q17328, P192Y); test: Whole-cell patch clamp in CHO cells, GluClαP192Y/βWT receptor; type: cell-based; details: 500 nM IVM, -60 mV
T3 construct: entry codes of the full-length subunits used in this study; expressed in transfected cells; host or cells: CHO cells, transient co-transfection 1:1, pcDNA3.1
Experimental: as §1, §2

GluClαY194R/βWT receptor = target: T4, GluClαY194R/βWT receptor (Caenorhabditis elegans, UniProt G5EBR3+Q17328, Y194R); test: Whole-cell patch clamp in CHO cells, GluClαY194R/βWT receptor; type: cell-based; details: 500 nM IVM, -60 mV
T4 construct: entry codes of the full-length subunits used in this study; expressed in transfected cells; host or cells: CHO cells, transient co-transfection 1:1, pcDNA3.1
Experimental: as §1, §2

[2] = target: T5, GluClα[SSS→GSD]/βWT receptor (Caenorhabditis elegans, UniProt G5EBR3+Q17328, S236G/S238D); test: Whole-cell patch clamp in CHO cells, GluClα[SSS→GSD]/βWT receptor; type: cell-based; details: 500 nM IVM, -60 mV
T5 construct: entry codes of the full-length subunits used in this study; expressed in transfected cells; host or cells: CHO cells, transient co-transfection 1:1, pcDNA3.1
Experimental: as §1, §2

wild type GluClα/βR = system: wild type GluClα/βR; set-up: method as in Cully et al., [1994]; details: 5 nM IVM, Xenopus oocytes; ref Cully et al., [1994]; cited from earlier work

T5 sequence (G5EBR3 21-461 S236G/S238D, one chain of several): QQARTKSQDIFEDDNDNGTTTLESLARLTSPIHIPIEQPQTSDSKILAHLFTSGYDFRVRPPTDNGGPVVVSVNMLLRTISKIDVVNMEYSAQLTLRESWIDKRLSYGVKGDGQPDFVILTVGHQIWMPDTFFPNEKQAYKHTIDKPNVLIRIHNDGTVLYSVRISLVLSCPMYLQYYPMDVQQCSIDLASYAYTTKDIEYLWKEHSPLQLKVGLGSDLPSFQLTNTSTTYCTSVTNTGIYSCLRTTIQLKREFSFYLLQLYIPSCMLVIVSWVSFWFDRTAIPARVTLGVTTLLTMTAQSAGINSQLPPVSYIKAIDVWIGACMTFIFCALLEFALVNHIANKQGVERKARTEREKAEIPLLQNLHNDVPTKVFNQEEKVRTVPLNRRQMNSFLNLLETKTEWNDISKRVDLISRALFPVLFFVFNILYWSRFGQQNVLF
T2 sequence (G5EBR3 21-461 P192M, one chain of several): as the sequence (G5EBR3 21-461 S236G/S238D, one chain of several) above, with P172M, G216S, D218S counted along it
T3 sequence (G5EBR3 21-461 P192Y, one chain of several): as the sequence (G5EBR3 21-461 S236G/S238D, one chain of several) above, with P172Y, G216S, D218S counted along it
T4 sequence (G5EBR3 21-461 Y194R, one chain of several): as the sequence (G5EBR3 21-461 S236G/S238D, one chain of several) above, with Y174R, G216S, D218S counted along it

CC[C@H](C)[C@H]1O[C@]2(CC[C@@H]1C)C[C@@H]1C[C@@H](C/C=C(\C)[C@@H](O[C@H]3C[C@H](OC)[C@@H](O[C@H]4C[C@H](OC)[C@@H](O)[C@H](C)O4)[C@H](C)O3)[C@@H](C)/C=C/C=C3\CO[C@@H]4[C@H](O)C(C)=C[C@@H](C(=O)O1)[C@]34O)O2 [IVM, ivermectin]
IVM (500 nM) Amplitude [1]: 0.0 ± 0.0 (10) nA
IVM (500 nM) Amplitude (GluClαP192M/βWT receptor): 1.4 ± 0.2 nA
IVM (500 nM) Amplitude (GluClαP192Y/βWT receptor): 1.2 ± 0.2 nA
IVM (500 nM) Amplitude (GluClαY194R/βWT receptor): 2.1 ± 0.5 nA
IVM (500 nM) Amplitude [2]: 1.8 ± 0.4 nA
potentiation of Glu-sensitive currents by IVM (wild type GluClα/βR): ~ 5 fold
